Assay results from patent publication US20130252988A1, “COMPOSITIONS AND METHODS FOR TREATING MYELOFIBROSIS” (TARGEGEN, INC., priority 2010, published 2013).
Entries after “also recorded” stand apart in the source; their conditions may differ. Counter-ions that a name gives are not always drawn.

Experiments:
platelet count = test: Thrombocytosis: platelet count; assay type: in vivo, human; settings: for Subjects who achieved a normal platelet count: after 6 cycles; for Subjects with a normal platelet count: following 12 cycles
[1] = tested on: subjects with myelofibrosis (constitutional symptoms); test: Constitutional symptoms rated by subjects (early satiety, fatigue, night sweats, cough, pruritus); assay type: in vivo
From the text: The data here reflected changes from symptoms present at baseline. […] Severity was rated by subjects on a scale of 1-10: 0=absent; 1-3=mild; 4-7=moderate; 8-10=severe. Improved=downgrade to absent or to mild or moderate from more severe rating at baseline.
Symptoms were categorized as “absent” (score=0), “mild” (score=1-3). “moderate” (score=4-7), or “severe” (score=8-10).

[2] = tested on: IL-6, IL-8, IL-2 and TNF-a; test: Cytokine levels, multiplexed sandwich ELISAs; assay type: in vivo, human
Experimental: Samples for cytokine measurement were collected at baseline and every 4 weeks thereafter. Cytokine levels were measured using multiplexed sandwich ELISAs (Millipore, St. Charles, Mo.).

[3] = Body weight during study treatment; assay type: in vivo, human
bone marrow = test: Bone marrow histology (cellularity, fibrosis); assay type: in vivo, human
Experimental: Responses were measured every 4 weeks per International Working Group for MPN Research and Treatment (IWG-MRT) criteria (Tefferi A et al., Blood 108:1497-1503, 2006). Assessment of bone marrow histology was performed at baseline and every 24 weeks of therapy. Changes in JAK2V617F allele burden in the granulocyte fraction of peripheral blood were measured as previously described (Kittur J et al., Cancer 109:2279-2284, 2007); the assessments were at baseline and every 4 weeks during the first 6 cycles, and every 6th cycle of therapy in the extension study.

WBC count = test: Leukocytosis: WBC count; assay type: in vivo, human; settings: for Subjects who achieved a normal WBC count: following 6 cycles; for Subjects with normal WBC counts: following 12 cycles
[4] = MTD cohort, after 1 cycle (n=12)
[5] = MTD cohort, after 1 cycle, 8 subjects at baseline
[6] = MTD cohort, after 6 cycles (n=16)

**Q.** For `Cc1cnc(Nc2ccc(OCCN3CCCC3)cc2)nc1Nc1cccc(S(=O)(=O)NC(C)(C)C)c1` [TG101348, N-tert-butyl-3-[(5-methyl-2-{[4-(2-pyrrolidin-1-ylethoxy)phenyl]amino}pyrimidin-4-yl)amino]benzenesulfonamide dihydrochloride monohydrate], which “Subjects who achieved a normal platelet count” value (platelet count; MTD cohort (7 with baseline thrombocytosis)) is on record?
**A.** The value was 100%.

**Q.** And the “Subjects who achieved a normal platelet count” value (platelet count; across doses (10 with baseline thrombocytosis))?
**A.** Its value is 90%.

**Q.** And the “Effect on platelet counts in thrombocytosis” value (platelet count; baseline platelet count >450×10^9/L)?
**A.** The value was “able to reduce platelet counts”.

**Q.** And the “Subjects with a normal platelet count” value (platelet count; MTD cohort, all of 6)?
**A.** Its value is 6 subjects.

**Q.** What about the “Subjects with a normal platelet count” value (platelet count; across doses (7 of 8)) of the same compound?
**A.** The value was 88%.

**Q.** What about the “Subjects who reported new onset of =1 symptom during the study” value ([1]; FIG. 4) of the same compound?
**A.** The value was 18 subjects.

**Q.** What about the “Night sweats: subjects with complete resolution” value ([1]; MTD cohort, after 1 cycle) of the same compound?
**A.** Its value is 64%.

**Q.** What about the “Cough: subjects reporting improvement” value [1, 4] of the same compound?
**A.** The value was 75%.

**Q.** What about the “Cough: subjects with complete resolution” value [1, 4] of the same compound?
**A.** The value was 67%.

**Q.** What about the “Pruritus: subjects with complete resolution” value [1, 5] of the same compound?
**A.** The value was 50%.

**Q.** What about the “Pruritus: subjects with improvement” value [1, 5] of the same compound?
**A.** The value was 75%.

**Q.** And the “Early satiety: subjects with complete resolution” value ([1]; MTD cohort, after 2 cycles (n=27))?
**A.** The value was 56%.

**Q.** What about the “Night sweats: subjects with complete resolution” value ([1]; MTD cohort, after 6 cycles (n=9)) of the same compound?
**A.** Its value is 89%.

**Q.** And the “Fatigue: subjects reporting improvement” value [1, 6]?
**A.** Its value is 63%.

**Q.** And the “Fatigue: subjects with complete resolution” value [1, 6]?
**A.** The value was 25%.

**Q.** And the “Effect on MF-associated constitutional symptoms” value ([1]; early satiety, fatigue, cough, pruritus, night sweats, baseline versus last visit, dihydrochloride monohydrate)?
**A.** Its value is “clinically significant benefit or resolution of constitutional symptoms; also recorded: able to improve the MF-associated constitutional symptoms; also recorded: remarkable activity against MF-associated constitutional symptoms, pruritus and cachexia”.

**Q.** What about the “Subjects with new-onset symptoms resolved by last follow-up visit” value ([1]; of the 18 with new onset, FIG. 4) of the same compound?
**A.** Its value is 12 subjects.

**Q.** And the “Pruritus in one subject” value ([1]; subject with JAK2V617F-positive PMF, started at 680 mg/day)?
**A.** The value was “complete resolution of pruritus”.

**Q.** What about the “Serum EPO and TPO levels relative to baseline” value ([2]; after treatment initiation, data not shown) of the same compound?
**A.** Its value is “increases in serum EPO and to a lesser extent TPO levels”.

**Q.** And the “Absolute difference in IL-2 from baseline” value ([2]; cycle 6, 1 subject (101-039))?
**A.** The value was -1827 pg/mL.

**Q.** What about the “Absolute difference in IL-6 from baseline” value ([2]; cycle 6, 1 subject (101-039)) of the same compound?
**A.** Its value is -4719 pg/mL.

**Q.** And the “Effect on levels of pro-inflammatory cytokines (IL-6, IL-2, IL-8, TNF-a)” value ([2]; relative to baseline during treatment, dihydrochloride monohydrate)?
**A.** Its value is “no significant changes on cytokine levels; also recorded: minimal effect on serum levels of proinflammatory cytokines; also recorded: no consistent changes”.

**Q.** What about the “Weight, change from baseline, median” value ([3]; 6 Cycles, MTD Cohort (n = 28)) of the same compound?
**A.** Its value is 0.6 kg.

**Q.** And the “Weight, median” value ([3]; 6 Cycles, MTD Cohort (n = 28))?
**A.** Its value is 77.7 kg.

**Q.** What about the “Weight, change from baseline, median” value ([3]; 6 Cycles, Overall (n = 43)) of the same compound?
**A.** Its value is 0.4 kg.

**Q.** And the “Weight, median” value ([3]; 6 Cycles, Overall (n = 43))?
**A.** The value was 76.9 kg.

**Q.** And the “Weight, change from baseline, median” value ([3]; 12 Cycles, MTD Cohort (n = 26))?
**A.** Its value is 0.35 kg.

**Q.** And the “Weight, median” value ([3]; 12 Cycles, MTD Cohort (n = 26))?
**A.** Its value is 76.5 kg.

**Q.** What about the “Weight, change from baseline, median” value ([3]; 12 Cycles, Overall (n = 36)) of the same compound?
**A.** Its value is 0.7 kg.

**Q.** And the “Weight, median” value ([3]; 12 Cycles, Overall (n = 36))?
**A.** The value was 76.1 kg.

**Q.** What about the “Median body weight relative to baseline” value ([3]; end of 6 and 12 cycles, overall and MTD cohorts) of the same compound?
**A.** The value was “stable relative to baseline”.

**Q.** And the “Bone marrow fibrosis grade” value (bone marrow; after 18 cycles, person, V617F negative PMF, 3+ at baseline, starting dose 240, follow-up 440 mg/day)?
**A.** The value was 0.

**Q.** What about the Bone marrow cellularity (bone marrow; after 18 cycles, person, V617F negative PMF, 60% at baseline, starting dose 30, follow-up 520 mg/day) of the same compound?
**A.** The Bone marrow cellularity was 5-10%.

**Q.** And the “BM cellularity and reticulin fibrosis with extended treatment” value (bone marrow; preliminary observations)?
**A.** The value was “reduction in BM cellularity and reticulinfibrosis”.

**Q.** What about the “Patients with a normal WBC count at last follow-up visit” value (WBC count; Example 1, leukocytosis at baseline, started at =680 mg) of the same compound?
**A.** Its value is 70%.

**Q.** What about the “Subjects with normal WBC counts at follow-up visit” value (WBC count; Example 2, baseline WBC count >11×10^9/L) of the same compound?
**A.** Its value is 73%.

**Q.** And the “Anti-myeloproliferation activity: resolution of leukocytosis and thrombocytosis” value (WBC count; Example 2 conclusions)?
**A.** The value was “virtually all treated subjects experiencing complete resolution of leukocytosis and thrombocytosis”.

**Q.** And the “Subjects who achieved a normal WBC count” value (WBC count; MTD cohort (13 of 18))?
**A.** Its value is 72%.

**Q.** And the “Subjects who achieved a normal WBC count” value (WBC count; across doses (16 of 28 with baseline leukocytosis))?
**A.** Its value is 57%.

**Q.** And the “Subjects with normal WBC counts” value (WBC count; MTD cohort (10 of 17))?
**A.** The value was 59%.

**Q.** And the “Subjects with normal WBC counts” value (WBC count; across doses (14 of 25))?
**A.** Its value is 56%.
